Experimental data reported in paper doi:10.1101/2025.03.03.641193, “Trihydroxybenzaldoximes are redox cycling inhibitors of ThDP-dependent DXP synthase” (bioRxiv, 2025).
Where two headings read alike, the source gives them in different places.

Key:
[1] = molecular target: T1, EcDXPS (Escherichia coli, UniProt P77488); assay: DXPS-IspC coupled assay, aerobic, WT EcDXPS; type: biochemical, E. coli
T1 construct: made in house
Experimental: (§1) Inhibitory activity of compounds against DXPS were monitored via a continuous spectrophotometric coupled assay with DXPS and IspC as previously described.[41],[42] Briefly, Reaction mixtures containing HEPES (100 mM, pH 8.0), MgCl2 (2 mM), NaCl (5 mM), ThDP (1 mM), BSA (1 mg/mL), DXPS (125–500 nM), IspC (1.7 μM), NADPH (160 μM), DMSO (5%, v/v), and inhibitor (0–200 μM) were preincubated at 25 °C (or chamber temperature 25–30 °C) for 5 min. Enzymatic reactions were initiated via the addition of 20 μL of a 10x substrate mix for a final well volume of 200 μL. Reactions were performed in triplicate unless otherwise noted. See the following sections for details and modifications.
When varying pyruvate (0–500 μM), GAP was maintained at 50 μM (3 mM for R478A). When varying GAP (0–500 μM), pyruvate was maintained at 500 μM. The following [DXPS] were used when varying 1: WT EcDXPS, R478A, H431A, D427A (200 nM), R99A (500 nM), WT DrDXPS, WT PaDXPS (150 nM). […] Reactions were incubated and initiated as described above. Immediately following initiation, NADPH depletion was monitored at 340 nm at 25 °C for 7–10 min with a 14–20 second time interval. Initial velocities of DXP formation were determined from the linear portion of the NADPH decay. […] Initial velocities were plotted vs. substrate concentration, and the data were fit to equation 1 (mixed model), 2 (competitive), or 3 (uncompetitive) based on the calculated α value and goodness of fit in GraphPad Prism. Reported standard errors of the mean for Kis are calculated from three replicates.

[2] = molecular target: T2, PaDXPS (Pseudomonas aeruginosa, UniProt Q9KGU7); assay: DXPS-IspC coupled assay, PaDXPS; type: biochemical
T2 construct: made in house
Experimental: as §1
(§2) When varying pyruvate (0–500 μM), GAP was maintained at 50 μM (3 mM for R478A). When varying GAP (0–500 μM), pyruvate was maintained at 500 μM. The following [DXPS] were used when varying 1: WT EcDXPS, R478A, H431A, D427A (200 nM), R99A (500 nM), WT DrDXPS, WT PaDXPS (150 nM). Analogs 3 and 4 were tested using WT EcDXPS (150 nM). Reactions were incubated and initiated as described above. Immediately following initiation, NADPH depletion was monitored at 340 nm at 25 °C for 7–10 min with a 14–20 second time interval. Initial velocities of DXP formation were determined from the linear portion of the NADPH decay. Initial velocities were arithmetically corrected for background for compound 4. Initial velocities were plotted vs. substrate concentration, and the data were fit to equation 1 (mixed model), 2 (competitive), or 3 (uncompetitive) based on the calculated α value and goodness of fit in GraphPad Prism. Reported standard errors of the mean for Kis are calculated from three replicates.

[3] = molecular target: T3, R99A DXPS (Escherichia coli, UniProt P77488, R99A); assay: DXPS-IspC coupled assay, R99A variant; type: biochemical, E. coli
T3 construct: made in house
Experimental: (§3) To determine the role of active site network residues in the activity of oximes, inhibitory activity of 1 was assessed against EcD427A, EcH431A, and EcR99A by the DXPS-IspC coupled assay[41],[42] (Fig 4B, S3, Table S1). Ki determination was performed by varying [pyruvate] in order to assess the impact of residue substitutions on the uncompetitive mode of inhibition. […] (8.7 ± 1.2 μM, Fig S3, Table S1).
as §1, §2

[4] = molecular target: T4, D427A DXPS (Escherichia coli, UniProt P77488, D427A); assay: DXPS-IspC coupled assay, D427A variant; type: biochemical, E. coli
T4 construct: made in house
Experimental: as §3
Inhibitory activity of compounds against DXPS were monitored via a continuous spectrophotometric coupled assay with DXPS and IspC as previously described.[41],[42] […]
When varying pyruvate (0–500 μM), GAP was maintained at 50 μM (3 mM for R478A). […] Immediately following initiation, NADPH depletion was monitored at 340 nm at 25 °C for 7–10 min with a 14–20 second time interval. Initial velocities of DXP formation were determined from the linear portion of the NADPH decay. […] Initial velocities were plotted vs. substrate concentration, and the data were fit to equation 1 (mixed model), 2 (competitive), or 3 (uncompetitive) based on the calculated α value and goodness of fit in GraphPad Prism. Reported standard errors of the mean for Kis are calculated from three replicates.

[5] = molecular target: T1, EcDXPS; assay: Inhibition in the presence of CAT or ascorbate; type: biochemical, E. coli
Experimental: Given that CAT prevents nonenzymatic oxidative decarboxylation of pyruvate (Fig S8, S12), but influences the redox state of 1, we evaluated the inhibitory activity of 1 in the presence of CAT (Fig 6). […] In this experiment, 1 was incubated at 25 °C for 5 min in the presence of DXPS, IspC, and either CAT or ascorbate prior to initiation by addition of pyruvate and D-GAP. […] In the presence of ascorbate, 1 is primarily in the reduced form according to NMR (Fig S10).
Reaction solutions were prepared containing EcDXPS (150 nM). Solutions contained either DXPS alone or were supplemented with CAT (0.25 mg/mL) or ascorbate (5 mM). Reaction mixtures were incubated with either water or 1 (100 μM) for 5 min at 25 °C. Reactions were initiated with a mixture of pyruvate (110 μM) and GAP (60 μM), or water for background controls. Immediately following initiation, NADPH depletion was monitored at 340 nm at 25 °C for 7.5 min with a 14 second time interval. Initial velocities of DXP formation were measured as described above and arithmetically corrected for background rates and normalized to the DXPS only control reaction for comparison. Reactions were performed in triplicate, and % inhibition was determined arithmetically from initial velocities. Reported standard errors of the mean for Kis are calculated from three replicates.

With `ON=Cc1cc(O)c(O)cc1O` [compound 1, 2,4,5-trihydroxybenzaldoxime] the “%Inhibition at 200 μM 1” value ([1]; WT DXPS, HEPES pH 8, 200 μM) was ~ 79%, the “MOI varying D-GAP” value ([1]; WT EcDXPS, aerobic) was “competitive” and the MOI varying pyruvate ([1]; WT EcDXPS, aerobic) was “uncompetitive”. The inhibition at 200 µM ([1]; pH 8, read-out: %Inhibition at 200 μM 1, WT DXPS, HEPES pH 8, 200 μM) was 79.2 ± 0.2%, the Ki [2] was 16.4 ± 2.2 µM and the “MOI varying D-GAP” value ([2]; PaDXPS) was “competitive”. The MOI varying pyruvate ([2]; PaDXPS) was “uncompetitive”, the “Ki/Ki^EcDXPS” value ([2]; PaDXPS, vary pyruvate, fold reduction in potency) was 3.5 and the “MOI varying D-GAP” value ([3]; EcR99A) was “competitive”. The MOI varying pyruvate ([3]; EcR99A) was “uncompetitive”, the Ki ([3]; Ki Vary Pyruvate, R99A, pyruvate 0–500 μM) was 30 ± 1 µM and the Ki ([3]; Ki varying [D-GAP], R99A, GAP 0–500 μM, pyruvate 500 μM) was 8.7 ± 1.2 µM. For the same compound, the “Ki/Ki^wt” value ([3]; R99A, vary pyruvate, fold reduction in potency vs WT) was ~ 6, the “fold reduction in potency relative to WT” value ([3]; R99A, varying [D-GAP]) was 4 fold and the Ki [4] was 4.8 ± 0.2 µM. For the same compound, the MOI varying pyruvate ([4]; EcD427A) was “uncompetitive”, the inhibition at 100 µM ([5]; read-out: %Inhibition at 100 μM 1, Ascorbate 5 mM, aerobic, 100 μM) was 23% and the inhibition at 100 µM ([5]; read-out: %Inhibition at 100 μM 1, CAT 0.25 mg/mL, aerobic, 100 μM) was 80%. The inhibition at 100 µM ([5]; read-out: %Inhibition at 100 μM 1, Control (DXPS alone), aerobic, 100 μM) was 80 ± 0.5%.
